{
  "source": "paper PMC10673624",
  "about": "(Current research in chemical biology, 2023)",
  "key": {"CLK": {"tested_on": "CLK", "details": "ref SGC chemical probe website (thesgc.org/chemical-probes/MU1210, /T3-CLK); cited from earlier work"}, "[1]": {"tested_on": "pSR and CLK2 localization, U118-MG and MDA-MB-435 cells", "test": "Immunofluorescence of pSR and CLK2 localization", "assay_type": "cell-based", "details": "500 nM, over the course of 60 min"}, "BT-20": {"tested_on": "BT-20", "test": "Crystal violet cell proliferation", "assay_type": "cell-based", "details": "BT-20, denoted concentrations, 7 days (Fig. 6a)"}, "ERK8 (MAPK15)": {"molecular_target": "ERK8 (MAPK15) (Homo sapiens, UniProt Q8TD08)", "sequence (Q8TD08 whole entry)": "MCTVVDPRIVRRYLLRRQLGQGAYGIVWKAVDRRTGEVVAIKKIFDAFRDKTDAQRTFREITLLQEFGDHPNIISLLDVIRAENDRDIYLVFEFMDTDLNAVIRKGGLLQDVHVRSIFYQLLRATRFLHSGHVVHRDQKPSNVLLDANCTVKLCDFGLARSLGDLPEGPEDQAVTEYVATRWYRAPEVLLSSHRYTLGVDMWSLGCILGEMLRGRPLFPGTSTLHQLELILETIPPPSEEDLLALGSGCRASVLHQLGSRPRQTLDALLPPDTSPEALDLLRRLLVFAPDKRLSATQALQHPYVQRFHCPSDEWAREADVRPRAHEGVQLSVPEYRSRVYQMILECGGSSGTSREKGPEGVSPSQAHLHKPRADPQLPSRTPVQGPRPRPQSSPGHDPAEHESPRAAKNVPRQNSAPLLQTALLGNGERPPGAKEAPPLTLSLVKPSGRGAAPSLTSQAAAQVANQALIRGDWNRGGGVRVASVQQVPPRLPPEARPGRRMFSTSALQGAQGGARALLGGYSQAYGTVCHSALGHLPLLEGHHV", "test": "KINOMEscan scanMAX binding"}, "MDA-MB-435": {"tested_on": "MDA-MB-435", "test": "Crystal violet cell proliferation", "assay_type": "cell-based", "details": "MDA-MB-435, denoted concentrations, 7 days (Fig. 6a)"}, "HIPK2 [2]": {"molecular_target": "T1, HIPK2 (Homo sapiens, UniProt Q9H2X6)", "T1 sequence (Q9H2X6 whole entry)": "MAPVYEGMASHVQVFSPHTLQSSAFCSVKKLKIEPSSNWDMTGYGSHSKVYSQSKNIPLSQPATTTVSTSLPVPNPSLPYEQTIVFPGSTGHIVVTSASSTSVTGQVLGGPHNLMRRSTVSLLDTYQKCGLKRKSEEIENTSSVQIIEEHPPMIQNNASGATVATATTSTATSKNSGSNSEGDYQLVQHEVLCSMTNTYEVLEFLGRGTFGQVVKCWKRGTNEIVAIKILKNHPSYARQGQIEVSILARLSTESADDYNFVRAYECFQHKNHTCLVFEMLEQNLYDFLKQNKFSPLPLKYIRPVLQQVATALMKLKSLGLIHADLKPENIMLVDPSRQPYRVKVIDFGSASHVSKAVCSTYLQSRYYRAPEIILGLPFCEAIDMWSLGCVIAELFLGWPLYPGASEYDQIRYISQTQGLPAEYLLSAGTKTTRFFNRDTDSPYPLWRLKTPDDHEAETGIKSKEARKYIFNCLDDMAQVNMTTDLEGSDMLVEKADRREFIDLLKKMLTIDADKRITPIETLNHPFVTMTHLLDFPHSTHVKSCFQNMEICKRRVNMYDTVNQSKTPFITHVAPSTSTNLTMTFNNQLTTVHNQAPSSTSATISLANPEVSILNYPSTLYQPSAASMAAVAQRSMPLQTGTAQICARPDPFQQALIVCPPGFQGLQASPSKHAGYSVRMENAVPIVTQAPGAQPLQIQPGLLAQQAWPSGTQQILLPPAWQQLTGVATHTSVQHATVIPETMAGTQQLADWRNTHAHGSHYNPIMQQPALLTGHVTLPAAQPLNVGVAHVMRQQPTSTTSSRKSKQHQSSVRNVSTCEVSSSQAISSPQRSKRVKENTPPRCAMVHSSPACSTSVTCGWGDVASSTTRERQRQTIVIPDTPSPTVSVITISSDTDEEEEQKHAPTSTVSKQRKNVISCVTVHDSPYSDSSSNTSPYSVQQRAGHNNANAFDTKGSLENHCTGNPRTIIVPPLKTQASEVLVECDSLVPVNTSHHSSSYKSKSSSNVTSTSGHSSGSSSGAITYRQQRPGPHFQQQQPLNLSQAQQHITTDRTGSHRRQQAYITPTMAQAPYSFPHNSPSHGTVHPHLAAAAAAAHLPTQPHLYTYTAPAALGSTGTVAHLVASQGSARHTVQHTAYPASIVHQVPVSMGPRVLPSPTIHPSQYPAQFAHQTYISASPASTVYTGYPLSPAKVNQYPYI", "test": "Eurofins enzymatic assay", "assay_type": "biochemical"}, "CLK1 [3]": {"molecular_target": "T2, CLK1 (Homo sapiens, UniProt P49759)", "T2 sequence (P49759 whole entry)": "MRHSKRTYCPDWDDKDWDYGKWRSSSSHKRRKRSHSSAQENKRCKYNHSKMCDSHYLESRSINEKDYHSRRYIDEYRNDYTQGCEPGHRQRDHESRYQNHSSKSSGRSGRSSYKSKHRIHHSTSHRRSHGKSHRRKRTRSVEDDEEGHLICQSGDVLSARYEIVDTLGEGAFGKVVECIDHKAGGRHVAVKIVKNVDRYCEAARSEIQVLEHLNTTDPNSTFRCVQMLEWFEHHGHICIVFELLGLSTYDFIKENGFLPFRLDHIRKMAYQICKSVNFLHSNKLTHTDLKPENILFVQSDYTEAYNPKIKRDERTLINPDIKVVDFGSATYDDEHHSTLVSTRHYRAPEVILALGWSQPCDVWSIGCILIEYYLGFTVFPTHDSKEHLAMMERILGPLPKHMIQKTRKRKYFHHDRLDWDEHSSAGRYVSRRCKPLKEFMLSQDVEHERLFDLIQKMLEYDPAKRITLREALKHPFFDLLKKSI", "test": "NanoBRET in-cell target engagement", "assay_type": "cell-based"}, "HIPK2 [4]": {"molecular_target": "T1, HIPK2", "test": "NanoBRET in-cell target engagement", "assay_type": "cell-based"}, "[5]": {"tested_on": "SR phosphorylation (pSR), U118-MG cells", "test": "Western blot of phosphorylated SR proteins", "assay_type": "cell-based"}, "[6]": {"tested_on": "100 different cancer cell lines", "test": "ProQinase CL100 cancer cell line panel", "assay_type": "cell-based", "details": "of 100 cell lines tested, CellTiter-Glo"}, "HIPK1 [7]": {"molecular_target": "T3, HIPK1 (Homo sapiens, UniProt Q86Z02)", "T3 sequence (Q86Z02 whole entry)": "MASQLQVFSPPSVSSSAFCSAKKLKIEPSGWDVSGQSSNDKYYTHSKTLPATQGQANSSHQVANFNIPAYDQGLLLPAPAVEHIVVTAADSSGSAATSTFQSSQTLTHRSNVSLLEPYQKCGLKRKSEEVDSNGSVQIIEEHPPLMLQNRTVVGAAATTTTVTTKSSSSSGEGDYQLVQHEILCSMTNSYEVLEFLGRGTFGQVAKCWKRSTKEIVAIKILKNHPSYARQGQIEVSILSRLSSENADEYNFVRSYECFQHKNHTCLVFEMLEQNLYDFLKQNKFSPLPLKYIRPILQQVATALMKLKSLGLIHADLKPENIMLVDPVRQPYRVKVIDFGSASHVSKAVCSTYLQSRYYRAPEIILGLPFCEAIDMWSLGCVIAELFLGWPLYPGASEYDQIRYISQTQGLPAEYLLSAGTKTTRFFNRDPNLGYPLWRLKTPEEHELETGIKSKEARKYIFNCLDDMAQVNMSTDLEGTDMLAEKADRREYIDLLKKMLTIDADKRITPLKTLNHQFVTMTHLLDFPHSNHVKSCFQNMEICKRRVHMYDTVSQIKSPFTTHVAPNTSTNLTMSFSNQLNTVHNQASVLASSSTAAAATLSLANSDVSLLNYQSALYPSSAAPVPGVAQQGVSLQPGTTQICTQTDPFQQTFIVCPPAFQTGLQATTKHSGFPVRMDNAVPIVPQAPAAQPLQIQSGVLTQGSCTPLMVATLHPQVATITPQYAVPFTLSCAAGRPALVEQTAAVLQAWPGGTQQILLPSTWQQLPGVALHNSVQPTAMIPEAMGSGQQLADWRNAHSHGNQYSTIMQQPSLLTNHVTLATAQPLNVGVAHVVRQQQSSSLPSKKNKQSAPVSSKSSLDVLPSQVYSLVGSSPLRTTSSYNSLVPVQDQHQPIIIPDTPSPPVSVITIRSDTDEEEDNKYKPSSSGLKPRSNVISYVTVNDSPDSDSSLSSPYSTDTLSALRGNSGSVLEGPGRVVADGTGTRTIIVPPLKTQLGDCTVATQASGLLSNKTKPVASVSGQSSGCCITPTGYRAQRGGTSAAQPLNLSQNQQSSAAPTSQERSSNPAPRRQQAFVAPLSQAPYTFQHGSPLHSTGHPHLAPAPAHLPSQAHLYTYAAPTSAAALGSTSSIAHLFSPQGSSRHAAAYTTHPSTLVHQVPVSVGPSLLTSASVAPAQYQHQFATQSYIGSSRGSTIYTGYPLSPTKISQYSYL", "test": "Eurofins enzymatic assay", "assay_type": "biochemical"}, "STK16 [8]": {"molecular_target": "T4, STK16 (Homo sapiens, UniProt O75716)", "T4 sequence (O75716 whole entry)": "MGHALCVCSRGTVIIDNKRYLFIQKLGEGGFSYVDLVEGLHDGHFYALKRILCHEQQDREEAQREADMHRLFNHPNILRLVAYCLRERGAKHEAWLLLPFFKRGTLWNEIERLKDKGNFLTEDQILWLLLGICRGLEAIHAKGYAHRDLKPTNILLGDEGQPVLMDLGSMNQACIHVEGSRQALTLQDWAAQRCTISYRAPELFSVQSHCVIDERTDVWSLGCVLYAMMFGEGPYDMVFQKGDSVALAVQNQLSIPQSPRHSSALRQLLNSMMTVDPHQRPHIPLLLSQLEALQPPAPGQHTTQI", "test": "NanoBRET in-cell target engagement", "assay_type": "cell-based"}, "U118-MG": {"tested_on": "U118-MG", "test": "Crystal violet cell proliferation", "assay_type": "cell-based", "details": "denoted concentrations, 7 days (Fig. 6a)"}, "STK16 [9]": {"molecular_target": "T4, STK16", "test": "Eurofins enzymatic assay", "assay_type": "biochemical"}, "[10]": {"tested_on": "CLK2 or pSR distribution, BT-20", "test": "Immunofluorescence of pSR and CLK2 localization", "assay_type": "cell-based"}, "HIPK1 [11]": {"molecular_target": "T3, HIPK1", "test": "NanoBRET in-cell target engagement", "assay_type": "cell-based"}, "[12]": {"tested_on": "403 wildtype (WT) human as well as several mutant and nonhuman kinases", "assay_type": "binding", "details": "no kinase bound below this PoC"}, "CLK1 [13]": {"molecular_target": "T2, CLK1", "test": "Eurofins enzymatic assay", "assay_type": "biochemical"}, "CLK2 [14]": {"molecular_target": "T5, CLK2 (Homo sapiens, UniProt P49760)", "T5 sequence (P49760 whole entry)": "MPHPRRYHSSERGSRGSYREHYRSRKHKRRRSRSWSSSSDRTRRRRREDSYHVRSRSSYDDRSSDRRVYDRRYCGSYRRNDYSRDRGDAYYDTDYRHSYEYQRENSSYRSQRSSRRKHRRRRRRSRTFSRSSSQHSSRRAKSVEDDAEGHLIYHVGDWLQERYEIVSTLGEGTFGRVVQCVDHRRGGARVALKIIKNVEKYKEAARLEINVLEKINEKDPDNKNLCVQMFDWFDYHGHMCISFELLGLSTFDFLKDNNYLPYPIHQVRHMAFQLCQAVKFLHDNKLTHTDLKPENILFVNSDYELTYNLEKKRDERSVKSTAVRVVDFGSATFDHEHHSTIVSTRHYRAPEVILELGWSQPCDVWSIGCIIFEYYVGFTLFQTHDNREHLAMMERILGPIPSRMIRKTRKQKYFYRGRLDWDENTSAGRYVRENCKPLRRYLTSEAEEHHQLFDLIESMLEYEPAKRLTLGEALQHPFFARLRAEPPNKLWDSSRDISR", "test": "Eurofins enzymatic assay", "assay_type": "biochemical"}, "CLK2 [15]": {"molecular_target": "T5, CLK2", "test": "NanoBRET in-cell target engagement", "assay_type": "cell-based"}, "CLK4 [16]": {"molecular_target": "T6, CLK4 (Homo sapiens, UniProt Q9HAZ1)", "T6 sequence (Q9HAZ1 whole entry)": "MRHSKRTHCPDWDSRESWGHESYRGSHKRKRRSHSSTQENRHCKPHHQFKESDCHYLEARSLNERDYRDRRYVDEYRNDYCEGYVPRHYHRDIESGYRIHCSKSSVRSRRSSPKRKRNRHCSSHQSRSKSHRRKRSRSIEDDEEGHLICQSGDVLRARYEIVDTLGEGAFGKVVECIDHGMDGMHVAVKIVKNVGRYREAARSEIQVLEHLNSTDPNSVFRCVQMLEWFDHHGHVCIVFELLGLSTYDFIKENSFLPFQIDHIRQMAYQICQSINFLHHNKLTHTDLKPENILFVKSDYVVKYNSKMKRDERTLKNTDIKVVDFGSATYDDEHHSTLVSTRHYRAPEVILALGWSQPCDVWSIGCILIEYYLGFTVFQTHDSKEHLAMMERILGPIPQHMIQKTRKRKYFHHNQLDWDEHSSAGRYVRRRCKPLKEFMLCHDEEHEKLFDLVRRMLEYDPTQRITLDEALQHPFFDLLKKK", "test": "Eurofins enzymatic assay", "assay_type": "biochemical"}, "CLK1 [17]": {"molecular_target": "T2, CLK1", "test": "Luceome KinaseSeeker binding", "details": "read-out: KinaseSeeker activity remaining"}, "CLK3": {"molecular_target": "CLK3 (Homo sapiens, UniProt P49761)", "test": "Eurofins enzymatic assay", "assay_type": "biochemical"}, "CLK4 [18]": {"molecular_target": "CLK4", "test": "Luceome KinaseSeeker binding", "details": "CLK4, 1 μM"}, "CLK2 [19]": {"molecular_target": "T5, CLK2", "test": "Luceome KinaseSeeker binding", "details": "read-out: KinaseSeeker activity remaining"}, "CLK4 [20]": {"molecular_target": "T6, CLK4", "test": "NanoBRET in-cell target engagement", "assay_type": "cell-based"}},
  "data": [
    {"smiles": "Cn1cc(-c2ccc3occ(-c4cccc(-c5ccncc5)c4)c3n2)cn1", "note": "[Compound 1, reference compound]", "values": [
      {"measurement": "Activity in the CLK nanoBRET assays", "setting": "CLK", "value": "active"},
      {"measurement": "Effect on pSR and CLK2 localization", "setting": "[1]", "value": "did not show any effect on pSR or CLK2 localization"}
    ]},
    {"smiles": "COc1cc(Nc2nccc(-c3cnn4nc(OC)ccc34)n2)cc(C(F)(F)F)c1", "note": "[SGC-CLK-1, N-(3-methoxy-5-(trifluoromethyl)phenyl)-4-(6-methoxypyrazolo[1,5-b]pyridazin-3-yl) pyrimidin-2-amine]", "values": [
      {"measurement": "Effect on cell growth (crystal violet)", "setting": "BT-20", "value": "no growth change"},
      {"measurement": "% Control (1 μM)", "setting": "ERK8 (MAPK15); ERK8 (MAPK15), 1 μM", "value": 21, "unit": "%"},
      {"measurement": "remaining binding at 1 µM", "setting": "ERK8 (MAPK15); read-out: % Control (1 μM), ERK8 (MAPK15), 1 μM", "value": "< 35", "unit": "%"},
      {"measurement": "Effect on cell growth (crystal violet)", "setting": "MDA-MB-435", "value": "dose-dependent decrease in the growth"},
      {"measurement": "IC50", "setting": "HIPK2 [2]", "value": 42, "unit": "nM"},
      {"measurement": "IC50", "setting": "CLK1 [3]; Cellular IC50 (NanoBRET), CLK1, HEK293, Tracer K5", "value": "154 ± 50", "unit": "nM"},
      {"measurement": "IC50", "setting": "HIPK2 [4]", "value": "> 10000", "unit": "nM"},
      {"measurement": "Change in SR phosphorylation (pSR)", "setting": "[5]; 1 μM, highest treatment condition", "value": "did not detect significant pSR changes"},
      {"measurement": "Change in SR phosphorylation (pSR)", "setting": "[5]; 5 μM, 30 min post treatment, U118-MG", "value": "decrease in SR phosphorylation"},
      {"measurement": "Cell lines with IC50 for inhibiting proliferation <250 nM", "setting": "[6]", "value": "27/100"},
      {"measurement": "Effect on pSR and CLK2 localization", "setting": "[1]", "value": "significant changes in the cellular distribution of both pSRs and CLK2"},
      {"measurement": "IC50", "setting": "HIPK1 [7]", "value": 50, "unit": "nM"},
      {"measurement": "NanoBRET binding (in words)", "setting": "STK16 [8]", "value": "only partial inhibition"},
      {"measurement": "Effect on cell growth (crystal violet)", "setting": "U118-MG", "value": "dose-dependent decrease in the growth"},
      {"measurement": "IC50", "setting": "STK16 [9]", "value": 49, "unit": "nM"},
      {"measurement": "Effect on CLK2 or pSR distribution", "setting": "[10]", "value": "did not observe a difference in CLK2 or pSR distribution"},
      {"measurement": "IC50", "setting": "HIPK1 [11]", "value": "> 10000", "unit": "nM"}
    ]},
    {"smiles": "CCOc1ccc2c(-c3cc(C)nc(Nc4cc(OC)cc(C(F)(F)F)c4)n3)cnn2n1", "note": "[SGC-CLK-1N, 4-(6-ethoxypyrazolo [1,5-b]pyridazin-3-yl)-N-(3-methoxy-5-(trifluoromethyl)phenyl)-6-methylpyrimidin-2-amine]", "values": [
      {"measurement": "Effect on cell growth (crystal violet)", "setting": "MDA-MB-435", "value": "little effect"},
      {"measurement": "PoC of any kinase in the KINOMEscan panel", "setting": "[12]", "value": "≥ 45"},
      {"measurement": "NanoBRET activity (in words)", "setting": "CLK1 [3]; CLK1", "value": "inactive"},
      {"measurement": "Enzymatic inhibition (in words)", "setting": "CLK1 [13]", "value": "no inhibition"},
      {"measurement": "Enzymatic inhibition (in words)", "setting": "CLK2 [14]", "value": "no inhibition"},
      {"measurement": "NanoBRET activity (in words)", "setting": "CLK2 [15]", "value": "inactive"},
      {"measurement": "Enzymatic inhibition (in words)", "setting": "CLK4 [16]", "value": "no inhibition"},
      {"measurement": "remaining activity at 1 µM", "setting": "CLK1 [17]", "value": 100, "unit": "%"},
      {"measurement": "Enzymatic inhibition (in words)", "setting": "CLK3", "value": "no inhibition"},
      {"measurement": "KinaseSeeker activity remaining", "setting": "CLK4 [18]", "value": 100, "unit": "%"},
      {"measurement": "Effect on cell growth (crystal violet)", "setting": "U118-MG", "value": "little effect"},
      {"measurement": "Effect on CLK2 or pSR distribution", "setting": "[10]", "value": "did not observe a difference in CLK2 or pSR distribution"},
      {"measurement": "remaining activity at 1 µM", "setting": "CLK2 [19]", "value": 100, "unit": "%"},
      {"measurement": "NanoBRET activity (in words)", "setting": "CLK4 [20]", "value": "inactive"}
    ]}
  ]
}
